Data set [1] can be described thus: Half-life […] at pH 3.0. The class given is ADME, cell-free.
The subject of data set [2] is L1210. Put plainly: Compound was tested for its anti tumor activity against L1210 cells. The class given is functional, cell-based. Conditions: Mus musculus.
Data set [3] deals with L1210. Put plainly: The compound was tested for its anti tumor activity against L1210 cells. The class given is functional, cell-based. Conditions: Mus musculus.

Turning to `COC(=O)c1cc2c([nH]1)C(=O)C=C1N(C(=O)OC(C)(C)C)C[C@H]3C[C@]123`, in data set [1], the half-life was 177 h. For the same compound, the 50% inhibitory concentration (IC50) in the data set on L1210 [2] stood at 6 nM.

As for `COC(=O)[C@]1(C)N=C2C(=O)C=C3N(C(=O)OC(C)(C)C)C[C@H]4C[C@@]34C2=C1O`, the half-life in data set [1] was 11 h. This compound also gave a concentration for half-maximal inhibition (IC50) in the data set with L1210 [2] of 2000 nM.

In data set [1], `Cc1c[nH]c2c1[C@@]13C[C@@H]1CN(C(=O)OC(C)(C)C)C3=CC2=O` showed a half-life of 37 h. Besides, the IC50 with L1210 [3] came out at 330 nM.

One may read the half-life as how long it takes for the measured level to halve. A higher half-life goes with slow decline. For orientation: IC50 means the concentration needed to halve the response being measured. The low end stands for greater potency, the high end for weaker potency.

The record behind these values is ChEMBL document CHEMBL1129759, “A comparative study of the solvolysis reactivity, regioselectivity, and stereochemistry of the duocarmycin a and sa alkylation subunits” (Bioorg Med Chem Lett, 1996).
